As a reminder, the IC50 is the concentration needed to halve the response being measured. One may read the Ki as the equilibrium dissociation constant of an inhibitor or competing ligand from its target. What is called inhibition is the percentage by which the read-out fell short of the control.

Experimental findings from ChEMBL document CHEMBL5260828, “Amphiphilic glycoconjugates as potential anti-cancer chemotherapeutics” (Eur J Med Chem, 2018) are described below.

Converted amounts (≈) assume the structure as drawn.

One data set concerns NUGC-3. Kind of data set: Cytotoxicity against human NUGC-3 cells assessed as cell growth inhibition incubated for 30 mins by MTT assay. It is filed as functional, cell-based. Conditions: NUGC-3, 0.5 h. On the technique in general: Formazan colour is commonly taken as a measure of viable cells.
Data set [1] deals with ACHN. Kind of data set: Cytotoxicity against human ACHN cells assessed as cell viability. It is filed as functional.
For data set [2], the target named is RAC-alpha serine/threonine-protein kinase (Homo sapiens, UniProt P31749). Nature of the data set: Inhibition of AKT1 (unknown origin) in presence of ATP by ELISA. (ELISA stands for enzyme-linked immunosorbent assay.)
The subject of data set [3] is IGROV-1. Kind of data set: Antiproliferative activity against human IGROV-1 cells assessed as inhibition of cell growth incubated for 72 hrs by Coulter counter assay. It is filed as functional, cell-based. Conditions: IGROV-1, 72 h.
Data set [4] concerns IGROV-1. Nature of the data set: Antiproliferative activity against human IGROV-1 cells assessed as inhibition of cell growth incubated for 72 hrs in serum-free medium by Coulter counter assay. Conditions: IGROV-1, 72 h. It is filed as functional, cell-based.
The target in data set [5] is Sarcoplasmic/endoplasmic reticulum calcium ATPase 1 (Oryctolagus cuniculus, UniProt P04191). Kind of data set: Inhibition of SERCA1a in rabbit Sarcoplasmic reticulum assessed as inhibition constant in presence of [gamma-32P]ATP and calcium ionophore A23187 by coupled enzyme assay. It is filed as subcellular.
The next data set relates to HeLa S3. Nature of the data set: Cytotoxicity against human HeLa S3 cells assessed as inhibition of cell proliferation incubated for 72 hrs by MTT assay. Conditions: HeLa S3, 72 h. It is filed as functional, cell-based.
The next data set has as its system T-24. Kind of data set: Cytotoxicity against human T24 cells assessed as cell viability. It is filed as functional.
The subject of a further data set is HCT-116. Nature of the data set: Cytotoxicity against human HCT-116 cells assessed as cell growth inhibition incubated for 72 hrs by celltiter 96 aqueous cell proliferation assay. Conditions: HCT-116, 72 h. It is filed as functional, cell-based.
The test system of another data set is Lung NSCLC-N6 cell-line. Nature of the data set: Cytotoxicity against human Lung NSCLC-N6 cell-line by MTT colorimetric assay. It is filed as functional, cell-based.
In a further data set the test system is HEp-2. Kind of data set: Cytotoxicity against human HEp-2 cells assessed as cell growth inhibition by measuring effective dose. It is filed as functional. The note with it: read-out: ED50 (the source's name).
In another data set the test system is Col2. Kind of data set: Cytotoxicity against human Col2 cells assessed as cell growth inhibition incubated for 24 hrs by MTT assay. It is filed as functional, cell-based. Conditions: Col2, 24 h.
Another data set has as its system A549. Nature of the data set: Cytotoxicity against human A549 cells assessed as cell growth inhibition incubated for 24 hrs by MTT assay. It is filed as functional, cell-based. The note with it: A549, 24 h.
A further data set relates to MDA-MB-231. Nature of the data set: Cytotoxicity against human MDA-MB-231 cells assessed as cell growth inhibition incubated for 24 hrs by MTT assay. It is filed as functional, cell-based. The note with it: MDA-MB-231, 24 h.
The next data set relates to KB. Nature of the data set: Cytotoxicity against human KB cells assessed as cell growth inhibition incubated for 24 hrs by MTT assay. It is filed as functional, cell-based.
A further data set relates to K562. Nature of the data set: Cytotoxicity against human K562 cells assessed as cell growth inhibition incubated for 24 hrs by MTT assay. It is filed as functional, cell-based. The note with it: K562, 24 h.
The test system of another data set is NCI-H292. Kind of data set: Cytotoxicity against human NCI-H292 cells assessed as reduction in cell viability incubated for 4 days by WST-1 assay. The note with it: NCI-H292, 96 h. It is filed as functional, cell-based.
Another data set has as its system Jurkat. Kind of data set: Inhibition of cell growth in human Jurkat cells at 25 ug/ml. It is filed as functional.
The nature of data set [6]: Cytotoxicity against human HEK293F cells. It is filed as toxicity, cell-based.
For another data set, the system named is MKN-45. Kind of data set: Cytotoxicity against human MKN-45 cells. It is filed as functional, cell-based.
Data set [7] concerns ACHN. Kind of data set: Cytotoxicity against human ACHN cells. It is filed as functional, cell-based.

RAC-alpha serine/threonine-protein kinase, sequence (P31749 whole entry): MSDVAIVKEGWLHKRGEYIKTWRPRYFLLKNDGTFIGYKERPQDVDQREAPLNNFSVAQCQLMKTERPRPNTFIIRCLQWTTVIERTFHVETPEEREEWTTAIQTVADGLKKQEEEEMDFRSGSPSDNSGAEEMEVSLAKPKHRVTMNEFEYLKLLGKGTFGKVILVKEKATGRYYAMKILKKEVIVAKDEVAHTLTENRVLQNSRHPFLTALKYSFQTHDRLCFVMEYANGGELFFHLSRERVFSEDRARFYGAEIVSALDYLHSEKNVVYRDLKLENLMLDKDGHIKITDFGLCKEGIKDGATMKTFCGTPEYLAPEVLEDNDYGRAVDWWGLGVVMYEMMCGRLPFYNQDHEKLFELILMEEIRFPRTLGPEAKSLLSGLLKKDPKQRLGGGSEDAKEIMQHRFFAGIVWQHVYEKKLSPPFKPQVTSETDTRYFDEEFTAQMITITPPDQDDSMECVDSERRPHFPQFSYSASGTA
Sarcoplasmic/endoplasmic reticulum calcium ATPase 1, sequence (P04191 whole entry): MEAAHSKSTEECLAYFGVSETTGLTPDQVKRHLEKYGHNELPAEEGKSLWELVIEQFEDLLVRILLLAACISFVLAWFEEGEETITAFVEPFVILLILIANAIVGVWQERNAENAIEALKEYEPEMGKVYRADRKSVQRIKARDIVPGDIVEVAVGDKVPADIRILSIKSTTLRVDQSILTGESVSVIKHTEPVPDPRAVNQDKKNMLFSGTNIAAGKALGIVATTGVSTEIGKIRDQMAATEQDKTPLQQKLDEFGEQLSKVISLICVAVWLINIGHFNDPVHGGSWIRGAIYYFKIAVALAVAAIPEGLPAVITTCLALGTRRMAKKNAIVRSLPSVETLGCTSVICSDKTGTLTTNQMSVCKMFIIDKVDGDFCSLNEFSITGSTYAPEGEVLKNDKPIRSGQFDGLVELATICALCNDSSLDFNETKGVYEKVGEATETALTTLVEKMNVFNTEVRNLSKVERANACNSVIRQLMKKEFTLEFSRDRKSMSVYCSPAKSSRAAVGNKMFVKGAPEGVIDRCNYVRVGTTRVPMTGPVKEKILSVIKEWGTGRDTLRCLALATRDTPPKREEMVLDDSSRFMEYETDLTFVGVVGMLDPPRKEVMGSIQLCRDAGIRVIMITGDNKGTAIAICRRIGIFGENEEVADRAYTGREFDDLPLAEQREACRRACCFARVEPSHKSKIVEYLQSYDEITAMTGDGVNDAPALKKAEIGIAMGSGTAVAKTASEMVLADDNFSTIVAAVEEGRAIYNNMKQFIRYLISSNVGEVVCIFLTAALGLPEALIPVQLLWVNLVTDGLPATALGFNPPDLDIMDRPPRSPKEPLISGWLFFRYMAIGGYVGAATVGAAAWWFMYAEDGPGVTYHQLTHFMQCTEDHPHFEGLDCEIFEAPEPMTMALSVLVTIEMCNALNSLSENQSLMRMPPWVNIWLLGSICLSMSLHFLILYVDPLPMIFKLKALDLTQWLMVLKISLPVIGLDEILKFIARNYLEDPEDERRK

`CCCCCCCCCCCCCCCCCC(=O)OCC(O)CO` (centres undefined) [GLYCERYL MONOSTEARATE]: the IC50 in the data set on NUGC-3 was found to be 100 µM.

`CC(=O)O[C@H]1C(=O)[C@@]2(C)[C@H]([C@H](OC(=O)c3ccccc3)[C@]3(O)C[C@H](OC(=O)[C@H](O)[C@@H](NC(=O)c4ccccc4)c4ccccc4)C(C)=C1C3(C)C)[C@]1(OC(C)=O)CO[C@@H]1C[C@@H]2O` [PACLITAXEL]: in the data set with ACHN [1], the Activity stood at 65.8%.

With `CCCCCCCCCC(=O)OCC(COC(=O)CCCCCCCCC)O[C@@H]1O[C@H](C(=O)O)[C@@H](O)[C@H](O)[C@H]1O`, the IC50 was determined as 30.8 µM in data set [2], 156 µM in the data set on IGROV-1 [3] and 9.4 µM with IGROV-1 [4].

For the compound `C/C=C/C/C(C)=C\[C@H]1C[C@H]2C=C[C@H](C[C@H](C)/C=C(\C)[C@@H](OC)C/C=C/[C@@H](O[C@@H]3O[C@H](CO)[C@@H](O)[C@H](OC)[C@H]3O)CC(=O)O1)OO2`, the Ki in [5] came out at 0.018 µM. The IC50 in the data set with HeLa S3 is more than 10 µM.

In the case of `COc1cccc2c1C(=O)c1c(O)c3c(c(O)c1C2=O)C[C@@](O)(C(=O)CO)C[C@@H]3O[C@H]1C[C@H](N)[C@H](O)[C@H](C)O1` [DOXORUBICIN], in the data set with T-24, the Activity came out at 79%.

For `CO[C@@H]1/C=C(\C)C[C@H](/C=C/C#C[C@H]2C[C@@H]2Cl)OC(=O)[C@@H](C)[C@]2(O)C[C@H](O[C@@H]3O[C@@H](C)[C@H](O[C@@H]4O[C@@H](C)[C@H](O)[C@@](C)(O)[C@H]4O)[C@@](C)(O)[C@H]3OC)[C@@H](C)[C@@H](O2)[C@@H]1C`, the IC50 in the data set with HCT-116 amounted to 2 µM; with Lung NSCLC-N6 cell-line, 30 µg/mL (≈ 37.4 µM).

`CCCCCCCCCCCC(=O)O[C@@H]1[C@@H](O)[C@@H](OC(=O)/C=C/c2ccccc2)[C@H](O[C@@H]2[C@@H](O)[C@@H](OC(=O)[C@@H](C)CC)[C@H](O[C@@H]3[C@@H](O)[C@H]4OC(=O)CCCCCCCCC[C@@H](CCCCC)O[C@@H]5O[C@H](CO)[C@@H](O)[C@H](O)[C@H]5O[C@@H]4O[C@H]3C)O[C@H]2C)O[C@H]1C`: the EC50 in the data set with HEp-2 turned out to be 3.5 µg/mL (≈ 2.8 µM).

Regarding `CCCCCCCCO[C@@H]1O[C@@H](C)[C@H](OC(=O)CCCCC)[C@@H](O[C@@H]2O[C@@H](C)[C@H](OC(C)=O)[C@@H](O[C@@H]3O[C@@H](C)[C@H](OC(C)=O)[C@@H](O[C@@H]4O[C@@H](C)[C@H](O)[C@@H](O)[C@H]4OC(C)=O)[C@H]3OC(C)=O)[C@H]2OC(C)=O)[C@H]1O`, the IC50 in the data set with Col2, with A549, with MDA-MB-231, in the data set with KB and with K562 was 0.7 µM in each case.

Regarding `COC[C@@H](C[C@H]1O[C@@](O)([C@H](O)[C@@H]2C[C@H](OC)[C@@H](O)CC/C=C(C)/C=C/[C@@H](O[C@@H]3O[C@@H](C)[C@H](OC)[C@@H](O)[C@@H]3O)[C@H](C)/C=C(C)/C=C(C)/C=C(/C)C(=O)O2)[C@H](C)[C@@H](O)[C@H]1C)O[C@H]1C[C@](C)(O)[C@@H](O[C@H]2C[C@@H](OC)[C@H](O)[C@@H](C)O2)[C@H](C)O1`, the EC50 with NCI-H292 was determined as 0.15 µM.

Consider `CCOC(=O)CCCCCCC/C=C/CCCCCC[C@H](C)O[C@@H]1O[C@H](COC(C)=O)[C@@H](O)[C@H](O)[C@H]1O[C@@H]1O[C@H](COC(C)=O)[C@@H](O)[C@H](O)[C@H]1O`, for which 25 µg/mL produced 90% inhibition in the data set with Jurkat.

On to `CCCCCCCCCCCCCCCCCOC(=O)O[C@H](COC(=O)CCCCCCCCCCCCCCCCC)COP(=O)(O)O[C@@H]1[C@H](O)[C@H](OP(=O)(O)O)[C@@H](O)[C@H](O)[C@H]1O`, for which the IC50 came to 19.7 µM in data set [2], 49 µM in the data set on IGROV-1 [3] and 3.35 µM in the data set on IGROV-1 [4].

For the compound `CCCCCCCC(=O)O[C@H]1[C@H](OC[C@@H](O)[C@@H](O)[C@H](O)CO)O[C@H](COC(=O)CCCCC)[C@@H](OC(=O)CCCCC)[C@@H]1OC(=O)CCCCC`, the IC50 in data set [6] is 8.9 µM; in the data set with MKN-45, 7.5 µM; in the data set with ACHN [7], 6.8 µM.
